Test results published in patent US9862723B2, “Stable polymorph of the salt of (2R)-4-oxo-4-[3-(trifluoromethyl)-5,6-dihydro[1,2,4]triazolo[4,3-α]pyrazin-7(8H)-yl]-1-(2,4,5-trifluorophenyl)butan-2-anime with L-tartaric acid” (ZENTIVA k.s, priority 2013, dated 2018).

Experiment: Relative stability of the crystalline forms of sitagliptin L-tartrate (polymorph transformation on contamination/seeding with Form Z1)
Assay type: physicochemical
Settings: for stability of the crystalline form (polymorph) relative to the other form: comparison of WO 2005/072530 crystalline form with Form Z1 of sitagliptin L-tartrate, further experiments
Text: When studying the properties of salts of (2R)-4-oxo-4-[3-(trifluoromethyl)-5,6-dihydro[1,2,4]triazolo[4,3-α]pyrazin-7(8H)-yl]-1-(2,4,5-trifluorophenyl)butan-2-amine (sitagliptin), a quite new polymorph (Form Z1) of the salt of (2R)-4-oxo-4-[3-(trifluoromethyl)-5,6-dihydro[1,2,4]triazolo[4,3-α]pyrazin-7(8H)-yl]-1-(2,4,5-trifluorophenyl)butan-2-amine (sitagliptin) with L-tartaric acid has been successfully obtained, characterized by the following reflections in the X-ray powder pattern: 5.9; 9.8; 14.2; 19.5; 23.8 and 26.2±0.2° 2-theta.
Preparation of the Salt of (2R)-4-oxo-4-[3-(trifluoromethyl)-5,6-dihydro[1,2,4]triazolo[4,3-α]pyrazin-7(8H)-yl]-1-(2,4,5-trifluorophenyl)butan-2-amine with L-tartaric acid (Mixture of Forms) The salt of (2R)-4-oxo-4-[3-(trifluoromethyl)-5,6-dihydro[1,2,4]triazolo[4,3-α]pyrazin-7(8H)-yl]-1-(2,4,5-trifluorophenyl)butan-2-amine (sitagliptin) with L-tartaric acid, prepared in accordance with Example 1 (according to WO 2005/072530) (2 g) was suspended in propan-2-ol (50 ml) and the suspension was heated up to 50° C. under constant agitation. The polymorph Z1 (0.1 g) prepared in accordance with Example 2 was added to the white suspension. The mixture was agitated at the same temperature for 20 minutes and after cooling to 20° C. the product was filtered off and washed with a small amount of propan-2-ol. The obtained product was dried in a vacuum drier at 40° C. 1.9 g of a mixture of forms was obtained, Form Z1 being enriched considerably.

stability of the crystalline form (polymorph) relative to the other form	transformation of the original polymorph to Form Z1 (inconsiderable contamination by Form Z1, even under the conditions in which the original crystalline form is prepared)	SMILES
more stable	–	N[C@@H](CC(=O)N1CCn2c(nnc2C(F)(F)F)C1)Cc1cc(F)c(F)cc1F.O=C(O)C(O)C(O)C(=O)O [Form Z1, salt of (2R)-4-oxo-4-[3-(trifluoromethyl)-5,6-dihydro[1,2,4]triazolo[4,3-α]pyrazin-7(8H)-yl]-1-(2,4,5-trifluorophenyl)butan-2-amine (sitagliptin) with L-tartaric acid]
significantly less stable	very quick transformation	N[C@@H](CC(=O)N1CCn2c(nnc2C(F)(F)F)C1)Cc1cc(F)c(F)cc1F.O=C(O)C(O)C(O)C(=O)O [previously described crystalline form, Salt of (2R)-4-oxo-4-[3-(trifluoromethyl)-5,6-dihydro[1,2,4]triazolo[4,3-α]pyrazin-7(8H)-yl]-1-(2,4,5-trifluorophenyl)butan-2-amine with L-tartaric acid]
